Results from patent US12447149B2, “Formulations of vimseltinib” (Deciphera Pharmaceuticals, LLC, priority 2023, dated 2025).

Key:
Type in all cases: physicochemical
[1] = Hydration experiment: slurry of crystalline anhydrous form in deionized water, heat-cool cycles; settings: 4-hour heat-cool cycles between 40° C. and room temperature for 72 hours
Protocol: In a hydration experiment, a slurry of the crystalline anhydrous form of the compound represented by Formula (I) and deionized water was subjected to successive 4-hour heat-cool cycles between 40° C. and room temperature for 72 hours.

[2] = Hydration of crystalline anhydrous form in low water activity solvents (XRPD); settings: Ambient
Protocol: The hydration of the crystalline anhydrous form was studied using aqueous solvent systems with low water activity of 0.1. Slurries of the crystalline anhydrous form in the respective solvent were agitated for 6 days at room temperature. Aliquots of isolated materials were analyzed after 24, 48, and 144 hours of agitation. Table 12 summarizes the experiment conditions and isolated crystalline forms, as determined by XRPD.

[3] = Static storage stability of crystalline dihydrate and anhydrous forms (XRPD, DSC, KF weekly for four weeks)
Protocol: The stability of crystalline dihydrate and anhydrous forms of the compound represented by Formula (I) at varying relative humidity (RH) and temperature was investigated.
For example, the stability of crystalline dihydrate and anhydrous forms of the compound represented by Formula (I), as prepared according to Example 1 and Example 2, respectively, was studied under other conditions by placing aliquots of each form in static storage at conditions of 40° C./75% RH, 25° C./97% RH, 40° C./0% RH and 25° C./0% RH and analyzing the aliquots once weekly for four weeks using XRPD, DSC, and KF.

[4] = Particle size distribution (PSD) of crystalline dihydrate form and seeds, DMAC-water crystallization
[5] = Particle size analysis by laser diffraction (Malvern Mastersizer 3000, wet dispersion); settings: volume distribution, listed as 3
Protocol: Particle size analysis of dihydrate vimseltinib drug substance samples was determined by laser diffraction using a Malvern Mastersizer 3000 instrument in a wet dispersion mode.
Prior to analysis, dihydrate drug substance samples were rotated and inverted in the sample container at least 10 times to ensure homogeneity. Between 20 and 25 mg of sample was weighed into a Malvern Glass tube. 20 mL of the Dispersant Solution (0.1% Span 85 in Isoparaffin G) was added and vortexed until a homogeneous suspension was obtained (˜30 s). The sample was then placed in a Vibra-Cell ultrasonic processor. The amplitude was set to the target of 30% (4 Watts) using an external probe (Vibra-Cell) during 90 sec.
After background measurement, the sample dispersion was slowly added to the dispersion unit of the instrument to achieve an obscuration level target of 5%. The sample was stirred at 3250 rpm for at least 1 minute to ensure dispersion and stabilization of the sample. After stabilization, the measurement was started and performed using a Malvern Mastersizer 3000 according to the method conditions provided in Table 17.

[6] = jet-milled seed batch, crystallization 1 at 60° C. with 7% seeds, crystallization 2 at 64° C. with 5% seeds
[7] = crystallization outputs using seeds of a smaller size (about 1/3/5 μm)
[8] = crystallized with milled seeds of about 3/6/12 μm, seeding about 65° C., about 3% seeds, laboratory and production scale
[9] = milled seeds of crystalline dihydrate form used in DMAC-water crystallization, listed as 3

Cc1nc(-c2cnc(NC(C)C)n(C)c2=O)ccc1Oc1ccnc(-c2cnn(C)c2)c1 [crystalline anhydrous form]
isolated solid form by XRPD [1]: crystalline dihydrate form
Observed Forms ([2]; Acetone/water (99:1), 24 h): Anhydrous
Observed Forms ([2]; Acetone/water (99:1), 144 h): Anhydrous
Observed Forms ([2]; MEK/water (99:1), 24 h): Anhydrous
Observed Forms ([2]; MEK/water (99:1), 144 h): Dihydrate
stability of the solid form on storage ([3]; all storage conditions (40° C./75% RH, 25° C./97% RH, 40° C./0% RH, 25° C./0% RH), after 4 weeks): remained stable

Cc1nc(-c2cnc(NC(C)C)n(C)c2=O)ccc1Oc1ccnc(-c2cnn(C)c2)c1.O.O [Dihydrate form of the compound represented by Formula (I) (h]
KF (%) ([3]; storage 25° C./0% RH, Week 1): 7.5%
KF (%) ([3]; storage 25° C./0% RH, Week 2): 7.7%
KF (%) ([3]; storage 25° C./0% RH, Week 3): 8.1%
KF (%) ([3]; storage 25° C./0% RH, Week 4): 7.9%
XRPD ([3]; storage 25° C./0% RH, Week 4): Dihydrate
KF (%) ([3]; storage 25° C./97% RH, Week 1): 7.6%
KF (%) ([3]; storage 25° C./97% RH, Week 2): 7.5%
KF (%) ([3]; storage 25° C./97% RH, Week 3): 7.9%
KF (%) ([3]; storage 25° C./97% RH, Week 4): 7.9%
KF (%) ([3]; storage 40° C./0% RH, Week 1): 7.5%
XRPD ([3]; storage 40° C./0% RH, Week 1): Pattern 4
XRPD ([3]; storage 40° C./0% RH, Week 1, listed as crystalline dihydrate form (having crystal sizes in the range of about 10-50 μm)): Pattern 4
KF (%) ([3]; storage 40° C./0% RH, Week 2): 7.4%
XRPD ([3]; storage 40° C./0% RH, Week 2): Pattern 4
XRPD ([3]; storage 40° C./0% RH, Week 2, listed as crystalline dihydrate form (having crystal sizes in the range of about 10-50 μm)): Pattern 4
KF (%) ([3]; storage 40° C./0% RH, Week 3): 7.0%
XRPD ([3]; storage 40° C./0% RH, Week 3, listed as crystalline dihydrate form (having crystal sizes in the range of about 10-50 μm)): Pattern 4 and peaks at 9.9° and 10.6°
KF (%) ([3]; storage 40° C./0% RH, Week 4): 3.4%
XRPD ([3]; storage 40° C./0% RH, Week 4, listed as crystalline dihydrate form (having crystal sizes in the range of about 10-50 μm)): Pattern 4 and peaks at 9.9° and 10.6°
KF (%) ([3]; storage 40° C./75% RH, Week 1): 7.5%
KF (%) ([3]; storage 40° C./75% RH, Week 2): 7.9%
KF (%) ([3]; storage 40° C./75% RH, Week 3): 8.0%
KF (%) ([3]; storage 40° C./75% RH, Week 4): 7.9%

Cc1nc(-c2cnc(NC(C)C)n(C)c2=O)ccc1Oc1ccnc(-c2cnn(C)c2)c1.O.O [Crystalline dihydrate form of the compound represented by Fo]
Particle Size d10 [4, 6]: 3.6 microns
Particle Size d50 [4, 6]: 8.4 microns
Particle Size d90 [4, 6]: 16.2 microns

Cc1nc(-c2cnc(NC(C)C)n(C)c2=O)ccc1Oc1ccnc(-c2cnn(C)c2)c1
KF (%) ([3]; storage 25° C./0% RH, Week 1): 0.1%
XRPD ([3]; storage 25° C./0% RH, Week 1): Anhydrous
KF (%) ([3]; storage 25° C./0% RH, Week 2): 0.1%
XRPD ([3]; storage 25° C./0% RH, Week 2): Anhydrous
KF (%) ([3]; storage 25° C./0% RH, Week 3): 0.0%
XRPD ([3]; storage 25° C./0% RH, Week 3): Anhydrous
KF (%) ([3]; storage 25° C./0% RH, Week 4): 0.2%
XRPD ([3]; storage 25° C./0% RH, Week 4): Anhydrous
KF (%) ([3]; storage 25° C./97% RH, Week 1): 0.3%
XRPD ([3]; storage 25° C./97% RH, Week 1): Anhydrous
KF (%) ([3]; storage 25° C./97% RH, Week 2): 0.3%
XRPD ([3]; storage 25° C./97% RH, Week 2): Anhydrous
KF (%) ([3]; storage 25° C./97% RH, Week 3): 0.2%
XRPD ([3]; storage 25° C./97% RH, Week 3): Anhydrous
KF (%) ([3]; storage 25° C./97% RH, Week 4): 0.4%
XRPD ([3]; storage 25° C./97% RH, Week 4): Anhydrous
KF (%) ([3]; storage 40° C./0% RH, Week 1): 0.1%
XRPD ([3]; storage 40° C./0% RH, Week 1): Anhydrous
KF (%) ([3]; storage 40° C./0% RH, Week 2): 0.0%
XRPD ([3]; storage 40° C./0% RH, Week 2): Anhydrous
KF (%) ([3]; storage 40° C./0% RH, Week 3): 0.0%
XRPD ([3]; storage 40° C./0% RH, Week 3): Anhydrous
KF (%) ([3]; storage 40° C./0% RH, Week 4): 0.2%
XRPD ([3]; storage 40° C./0% RH, Week 4): Anhydrous
KF (%) ([3]; storage 40° C./75% RH, Week 1): 0.3%
XRPD ([3]; storage 40° C./75% RH, Week 1): Anhydrous
KF (%) ([3]; storage 40° C./75% RH, Week 2): 0.2%
XRPD ([3]; storage 40° C./75% RH, Week 2): Anhydrous
KF (%) ([3]; storage 40° C./75% RH, Week 3): 0.1%
XRPD ([3]; storage 40° C./75% RH, Week 3): Anhydrous
KF (%) ([3]; storage 40° C./75% RH, Week 4): 0.3%
XRPD ([3]; storage 40° C./75% RH, Week 4): Anhydrous

Cc1nc(-c2cnc(NC(C)C)n(C)c2=O)ccc1Oc1ccnc(-c2cnn(C)c2)c1.O.O [crystalline dihydrate form ground in a mortar and pestle]
XRPD ([3]; storage 40° C./0% RH, Week 1): Pattern 4 and the crystalline anhydrous form were observed

Cc1nc(-c2cnc(NC(C)C)n(C)c2=O)ccc1Oc1ccnc(-c2cnn(C)c2)c1 [vimseltinib]
Particle Size d10 [4, 7]: about 4 μm
Particle Size d50 [4, 7]: about 8 μm
Particle Size d90 [4, 7]: about 16 μm
Particle Size d10 [4, 8]: 6-8 μm
Particle Size d50 [4, 8]: 16-22 μm
Particle Size d90 [4, 8]: 33-40 μm

Cc1nc(-c2cnc(NC(C)C)n(C)c2=O)ccc1Oc1ccnc(-c2cnn(C)c2)c1.O.O [Lot 3]
D(10) [5]: 6 μm
D(50) [5]: 17 μm
D(90) [5]: 33 μm
Particle Size d10 [4, 9]: 3 microns
Particle Size d50 [4, 9]: 6 microns
Particle Size d90 [4, 9]: 12 microns
